In patent US7129213B2, “Tripeptides and tripeptide derivatives for the treatment of neurodegenerative diseases” (Neurotell AG, priority 2002, dated 2006):
Structures can show the parent of a compound that is named as a salt. Where a SMILES comes first, the peptide text is derived from it.

Experiments:
[1] = test system: rat treated by Gp120 as intracerebroventricular injection; assay: Gp120 model, sound avoidance conditioning; format: in vivo; details: for AUC (average area under the learning curve per day) / percentage of adequate responses D0 / percentage of adequate responses D3 / percentage of adequate responses D4: Gp120 ICV; for percentage of adequate responses D0: learning day D0; for percentage of adequate responses D3: learning day D3; for percentage of adequate responses D4: learning day D4
Method: Day 0. The animals were slightly anesthetized by ether, an incision was made into the skin of the skull, and the skull was pierced by means of a dental burr. A metal needle was stereotaxically directed to the lateral ventricle, and then fixed by means of dental cement. Every day of the experiment, the patency of the needle was controlled.
Day 3. Three days after introducing the needle (recovery from the postoperative shock) the animals received an intra-ventricular injection of 10 nM/kg/day of Gp120 (dissolved in normal saline) in a volume of 20 μl. This administration was repeated daily for a period of five days.
Day 18. Ten days after the last administration of Gp120, the rats were chloralized (360 mg/kg). A permanent floating catheter was retrogradely introduced into the common carotid artery. This catheter left again on the top of the skull, where it was fixed.
(§1) Day 21. Three days later (recovery from the postoperative shock), the 30 rats were randomly divided into three group of 10 animals each: • the first group of 10 rats received an intracarotid injection of 1 ml/kg/day of normal saline for a period of 10 days. • the second group of 10 rats received 10 mg/kg/day of HCl-Gly-Phe-ProNH2 (dissolved in normal saline) for a period of 10 days. • the third group received 20 mg/kg/day of HCl-Gly-Phe-ProNH2 under the same conditions. The injections were given between 9.00 and 9.30 a.m.
Day 26 to 30. The animals of all three groups were placed under the common learning conditions of the entire protocol. The learning sessions took place between 10.00 a.m. and 11.00 a.m.
During the last five days of treatment, at 10.00 a.m. (1 hour after the administration of HCl-Gly-Phe-ProNH2), the animals were placed into a learning cage for sound avoidance conditioning (Conditioning avoidance response). The animals learned to climb a pole first to escape from and then to avoid an electric shock. This method was standardized and quantified in our laboratory (see Le Poncin M., Lafitte J. C., Rapin J. R., Sound Avoidance Conditioning and a Mathematical approach to the description of acquisition performance, Math. Biosciences 59 (1982) 242–268).
For a period of five days, the animals were placed everyday under these learning conditions for a total of ten tests a day. Results are expressed as percentage of adequate responses, and the kinetics of the responses is represented by a multi-exponential maximum curve.
The curve maximum represents the learning capacities. The slope of the curve evaluates the learning speed. The area under the curve (AUC) represents a good evaluation of all conditioning parameters. The maximum value of the area under the curve is 500, if the animals show 100% adequate responses as early as Day 0. In fact, an average area under the curve is calculated per day, what amounts to a maximum value of 100. In the absolute control animals, this average area under the curve is equal to 40+/−4.

hippocampal neurons = assay: Gp120 model, neuronal count; format: in vivo, rat; details: CAIII layers, after ICV Gp120; 10 mg/kg/day
Method: as §1
Day 30. After the last learning session, the rats were sacrificed by means of decapitation, the brain was rapidly removed and frozen at […] in liquid nitrogen vapor. Brain sections were made by Cryocut at −20° C.
The sections are defrosted and stained with neutral red. After fixation, the number of neurons on one slice of the hippocampus was measured. The method is standardized by counting the neurons on the same slice. An index of the number of neurons compared to a control rat allows for a more reliable quantification than the simple counting.
The neurons are counted in the CAIII layers of the hippocampus. […] By definition, the value found in the control animals is 100 with a maximum variation of 5%.

SMILES: NCC(=O)N[C@@H](Cc1ccccc1)C(=O)N1CCC[C@H]1C(N)=O [HCl-Gly-Phe-ProNH2, glycyl-L-phenylalanyl-L-prolineamide] (H-Gly-Phe-Pro-NH2)
- AUC (average area under the learning curve per day) ([1]; 10 mg/kg/day 10 days): **23.8 +/− 4.1
- percentage of adequate responses D0 ([1]; 10 mg/kg/day 10 days): 0%
- percentage of adequate responses D3 ([1]; 10 mg/kg/day 10 days): **35 +/− 4%
- percentage of adequate responses D4 ([1]; 10 mg/kg/day 10 days): **55 +/− 7%
- AUC (average area under the learning curve per day) ([1]; 20 mg/kg/day 10 days): **29.6 +/− 3.0
- percentage of adequate responses D0 ([1]; 20 mg/kg/day 10 days): 0%
- percentage of adequate responses D3 ([1]; 20 mg/kg/day 10 days): **48 +/− 5%
- percentage of adequate responses D4 ([1]; 20 mg/kg/day 10 days): **70 +/− 5%
- effect on learning parameters ([1]; Gp120 model, 10 and 20 mg/kg): restores the capacities of the animal depending on the dose
- Counting of the hippocampal neurons (index, control animals = 100) (hippocampal neurons): 46 +/− 4
